Each compound was assayed against human full-length MKNK1 (Homo sapiens (Human), UniProt Q9BUB5, T344D) (assay: MKNK1 kinase high ATP assay (TR-FRET)). Details: high ATP (2 mM final), 15 min preincubation with MKNK1, TR-FRET.
Type: biochemical
Description: MKNK1 Kinase High ATP Assay
MKNK1-inhibitory activity at high ATP of compounds of the present invention after their preincubation with MKNK1 was quantified employing the TR-FRET-based MKNK1 high ATP assay as described in the following paragraphs.
As substrate for the kinase reaction the biotinylated peptide biotin-Ahx-[…] (C-terminus in amide form) was used, which can be purchased e.g. from the company Biosyntan (Berlin-Buch, Germany).
For the assay 50 nL of a 100 fold concentrated solution of the test compound in DMSO was pipetted into a black low volume 384 well microtiter plate (Greiner Bio-One, Frickenhausen, Germany), 2 μL of a solution of MKNK1 in aqueous assay buffer [50 mM HEPES pH 7.5, 5 mM MgCl2, 1.0 mM dithiothreitol, 0.005% (v/v) Nonidet-P40 (Sigma)] was added and the mixture was incubated for 15 min at 22° C. to allow pre-binding of the test compounds to the enzyme before the start of the kinase reaction. Then the kinase reaction was started by the addition of 3 μL of a solution of adenosine-tri-phosphate (ATP, 3.3 mM=>final conc. in the 5 μL assay volume is 2 mM) and substrate (0.1 μM=>final conc. in the 5 μL assay volume is 0.06 μM) in assay buffer and the resulting mixture was incubated for a reaction time of 30 min at 22° C. The concentration of MKNK1 was adjusted depending of the activity of the enzyme lot and was chosen appropriate to have the assay in the linear range, typical concentrations were in the range of 0.003 μg/mL. The reaction was stopped by the addition of 5 μL of a solution of TR-FRET detection reagents (5 nM streptavidine-XL665 [Cisbio Bioassays, Codolet, France] and 1 nM anti-ribosomal protein S6 (pSer236)-antibody from Invitrogen [#44921G] and 1 nM LANCE EU-W1024 labeled ProteinG [Perkin-Elmer, product no. AD0071]) in an aqueous EDTA-solution (100 mM EDTA, 0.1% (w/v) bovine serum albumin in 50 mM HEPES pH 7.5).
The resulting mixture was incubated for 1 h at 22° C. to allow the formation of complex between the phosphorylated biotinylated peptide and the detection reagents. Subsequently the amount of phosphorylated substrate was evaluated by measurement of the resonance energy transfer from the Eu-chelate to the streptavidine-XL.

human full-length MKNK1, sequence (Q9BUB5 other isoform, or with tags, fused parts or gaps T344D): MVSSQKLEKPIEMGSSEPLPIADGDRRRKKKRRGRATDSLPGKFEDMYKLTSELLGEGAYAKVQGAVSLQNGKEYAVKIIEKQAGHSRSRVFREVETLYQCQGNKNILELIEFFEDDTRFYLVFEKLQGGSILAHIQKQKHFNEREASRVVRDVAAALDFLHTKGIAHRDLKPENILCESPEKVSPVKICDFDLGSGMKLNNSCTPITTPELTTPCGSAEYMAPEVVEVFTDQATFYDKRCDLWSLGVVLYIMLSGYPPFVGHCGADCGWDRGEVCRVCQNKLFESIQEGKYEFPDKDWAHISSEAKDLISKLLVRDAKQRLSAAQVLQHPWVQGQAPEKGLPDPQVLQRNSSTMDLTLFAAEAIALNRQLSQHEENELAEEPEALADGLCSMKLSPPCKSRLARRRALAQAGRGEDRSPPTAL

Question: How did the IC50 turn out when `CCOc1cc2[nH]ncc2cc1Nc1ncnc2sc(C(=O)N3CCCCC3)nc12` [Example 34, {7-[(6-Ethoxy-1H-indazol-5-yl)amino][1,3]thiazolo[5,4-d]pyrimidin-2-yl}(piperidin-1-yl)methanone] was run?
Answer: The IC50 was 34 nM.

Question: How did the IC50 turn out when `CCOc1cc2[nH]ncc2cc1Nc1ncnc2sc(C(=O)N(C)C)nc12` [Example 30, 7-[(6-Ethoxy-1H-indazol-5-yl)amino]-N, N-dimethyl[1,3]thiazolo[5,4-d]pyrimidine-2-carboxamide] was run?
Answer: The IC50 was 42 nM.

Question: How did the IC50 turn out when `CC1(O)CN(C(=O)CCc2nc3c(Nc4ccc5[nH]ncc5c4)ncnc3s2)C1` [Example 14, 1-(3-Hydroxy-3-methylazetidin-1-yl)-3-[7-(1H-indazol-5-ylamino)[1,3]thiazolo[5,4-d]pyrimidin-2-yl]propan-1-one] was run?
Answer: Its IC50 is 126 nM.

Question: Which IC50 does the source give for `O=c1[nH]c2ccc(Nc3ncnc4sc(CC5CC5)nc34)cc2s1` [Example 1, 6-{[2-(Cyclopropylmethyl)[1,3]thiazolo[5,4-d]pyrimidin-7-yl]amino}-1,3-benzothiazol-2(3H)-one] here?
Answer: The IC50 was 37 nM.

Question: `COc1cc2[nH]ncc2cc1Nc1ncnc2sc(COCc3ccccc3)nc12` [Example 20, 2-[(Benzyloxy)methyl]-N-(6-methoxy-1H-indazol-5-yl)[1,3]thiazolo[5,4-d]pyrimidin-7-amine] was tested. Which IC50 did it give?
Answer: The IC50 was 36 nM.

Question: How did the IC50 turn out when `CN(C)C(=O)c1nc2c(Nc3ccc4[nH]ncc4c3)ncnc2s1` [Example 43, 7-(1H-Indazol-5-ylamino)-N,N-dimethyl[1,3]thiazolo[5,4-d]pyrimidine-2-carboxamide] was run?
Answer: The IC50 was 202 nM.

Question: Which IC50 does the source give for `O=C(c1nc2c(Nc3ccc4[nH]ncc4c3)ncnc2s1)N1CCCCC1` [Example 31, [7-(1H-Indazol-5-ylamino)[1,3]thiazolo[5,4-d]pyrimidin-2-yl](piperidin-1-yl)methanone] here?
Answer: Its IC50 is 188 nM.

Question: `CN(C)C(=O)CCc1nc2c(Nc3ccc4[nH]ncc4c3)ncnc2s1` [Example 21, 3-[7-(1H-Indazol-5-ylamino)[1,3]thiazolo[5,4-d]pyrimidin-2-yl]-N,N-dimethylpropanamide] was tested. Which IC50 did it give?
Answer: Its IC50 is 100 nM.

Question: `O=c1[nH]c2ccc(Nc3ncnc4scnc34)cc2s1` [Example 19, 6-([1,3]Thiazolo[5,4-d]pyrimidin-7-ylamino)-1,3-benzothiazol-2(3H)-one] was tested. Which IC50 did it give?
Answer: The IC50 was 159 nM.

Question: For `O=c1[nH]c2ccc(Nc3ncnc4sc(C5CCC5)nc34)cc2s1` [Example 2, 6-[(2-Cyclobutyl[1,3]thiazolo[5,4-d]pyrimidin-7-yl)amino]-1,3-benzothiazol-2(3H)-one], which IC50 is on record?
Answer: The IC50 was 87 nM.

Question: With `CC(C)Oc1cc2[nH]ncc2cc1Nc1ncnc2sc(C(=O)N3CCCCC3)nc12` [Example 35, Piperidin-1-yl(7-{[6-(propan-2-yloxy)-1H-indazol-5-yl]amino}[1,3]thiazolo[5,4-d]pyrimidin-2-yl)methanone] as the compound, how does the IC50 read?
Answer: Its IC50 is 102 nM.

Question: `COc1cc2[nH]c(=O)sc2cc1Nc1ncnc2sc(CCc3ccccc3)nc12` [Example 25, 5-Methoxy-6-{[2-(2-phenylethyl)[1,3]thiazolo[5,4-d]pyrimidin-7-yl]amino}-1,3-benzothiazol-2(3H)-one] was tested. Which IC50 did it give?
Answer: Its IC50 is 10000 nM.

Question: Which IC50 does the source give for `c1ccc(Cc2nc3c(Nc4ccc5[nH]ncc5c4)ncnc3s2)cc1` [Example 11, 2-Benzyl-N-(1H-indazol-5-yl)[1,3]thiazolo[5,4-d]pyrimidin-7-amine] here?
Answer: The IC50 was 35 nM.

Question: `COc1cc2[nH]ncc2cc1Nc1ncnc2sc(CCCC(=O)N(C)C)nc12` [Example 26, 4-{7-[(6-Methoxy-1H-indazol-5-yl)amino][1,3]thiazolo[5,4-d]pyrimidin-2-yl}-N, N-dimethylbutanamide] was tested. Which IC50 did it give?
Answer: Its IC50 is 85 nM.

Question: `c1nc(Nc2ccc3[nH]ncc3c2)c2nc(C3CCCCC3)sc2n1` [Example 8, 2-Cyclohexyl-N-(1H-indazol-5-yl)[1,3]thiazolo[5,4-d]pyrimidin-7-amine] was tested. Which IC50 did it give?
Answer: The IC50 was 56 nM.

Question: For `COc1cc2[nH]ncc2cc1Nc1ncnc2sc(CCc3ccccc3)nc12` [Example 22, N-(6-Methoxy-1H-indazol-5-yl)-2-(2-phenylethyl)[1,3]thiazolo[5,4-d]pyrimidin-7-amine], which IC50 is on record?
Answer: Its IC50 is 38 nM.

Question: How did the IC50 turn out when `COc1cc2[nH]ncc2cc1Nc1ncnc2sc(C(=O)N(C)CCC(=O)N(C)C)nc12` [Example 46, N-[3-(Dimethylamino)-3-oxopropyl]-7-[(6-methoxy-1H-indazol-5-yl)amino]-N-methyl[1,3]thiazolo[5,4-d]pyrimidine-2-carboxamide] was run?
Answer: Its IC50 is 184 nM.

Question: `c1nc(Nc2ccc3[nH]ncc3c2)c2ncsc2n1` [Example 16, N-(1H-Indazol-5-yl)[1,3]thiazolo[5,4-d]pyrimidin-7-amine] was tested. Which IC50 did it give?
Answer: Its IC50 is 186 nM.

Question: With `c1nc(Nc2ccc3[nH]ncc3c2)c2nc(C3CCC3)sc2n1` [Example 10, 2-Cyclobutyl-N-(1H-indazol-5-yl)[1,3]thiazolo[5,4-d]pyrimidin-7-amine] as the compound, how does the IC50 read?
Answer: The IC50 was 54 nM.

Question: How did the IC50 turn out when `c1nc(Nc2ccc3[nH]ncc3c2)c2nc(CC3CC3)sc2n1` [Example 9, 2-(Cyclopropylmethyl)-N-(1H-indazol-5-yl)[1,3]thiazolo[5,4-d]pyrimidin-7-amine] was run?
Answer: The IC50 was 36 nM.

Question: With `c1ccc(CCc2nc3c(Nc4ccc5[nH]ncc5c4)ncnc3s2)cc1` [Example 23, N-(1H-indazol-5-yl)-2-(2-phenylethyl)[1,3]thiazolo[5,4-d]pyrimidin-7-amine] as the compound, how does the IC50 read?
Answer: Its IC50 is 51 nM.

Question: With `COc1cc2[nH]ncc2cc1Nc1ncnc2sc(Cc3ccccc3)nc12` [Example 4, 2-Benzyl-N-(6-methoxy-1H-indazol-5-yl)[1,3]thiazolo[5,4-d]pyrimidin-7-amine] as the compound, how does the IC50 read?
Answer: Its IC50 is 20 nM.

Question: For `COc1cc2[nH]ncc2cc1Nc1ncnc2sc(C(=O)N(C)CC(=O)N(C)C)nc12` [Example 38, N-[2-(Dimethylamino)-2-oxoethyl]-7-[(6-methoxy-1H-indazol-5-yl)amino]-N-methyl[1,3]thiazolo[5,4-d]pyrimidine-2-carboxamide], which IC50 is on record?
Answer: Its IC50 is 136 nM.

Question: `COc1cc2[nH]ncc2cc1Nc1ncnc2scnc12` [Example 15, N-(6-Methoxy-1H-indazol-5-yl)[1,3]thiazolo[5,4-d]pyrimidin-7-amine] was tested. Which IC50 did it give?
Answer: The IC50 was 47 nM.

Question: Which IC50 does the source give for `COc1cc2[nH]c(=O)sc2cc1Nc1ncnc2sc(C(=O)N(C)C)nc12` [Example 28, 7-[(5-Methoxy-2-oxo-2,3-dihydro-1,3-benzothiazol-6-yl)amino]-N,N-dimethyl[1,3]thiazolo[5,4-d]pyrimidine-2-carboxamide] here?
Answer: Its IC50 is 1080 nM.

Question: `COc1cc2[nH]ncc2cc1Nc1ncnc2sc(C(=O)N3CCCCC3)nc12` [Example 33, {7-[(6-Methoxy-1H-indazol-5-yl)amino][1,3]thiazolo[5,4-d]pyrimidin-2-yl}(piperidin-1-yl)methanone] was tested. Which IC50 did it give?
Answer: The IC50 was 17 nM.

Question: Which IC50 does the source give for `CN(C)C(=O)CCN(C)C(=O)c1nc2c(Nc3ccc4[nH]c(=O)sc4c3)ncnc2s1` [Example 41, N-[3-(Dimethylamino)-3-oxopropyl]-N-methyl-7-[(2-oxo-2,3-dihydro-1,3-benzothiazol-6-yl)amino][1,3]thiazolo[5,4-d]pyrimidine-2-carboxamide] here?
Answer: Its IC50 is 2750 nM.

Question: Which IC50 does the source give for `COCc1nc2c(Nc3cc4cn[nH]c4cc3OC)ncnc2s1` [Example 5, N-(6-Methoxy-1H-indazol-5-yl)-2-(methoxymethyl)[1,3]thiazolo[5,4-d]pyrimidin-7-amine] here?
Answer: Its IC50 is 25 nM.

Question: `O=C(c1nc2c(Nc3ccc4[nH]c(=O)sc4c3)ncnc2s1)N1CCCCC1` [Example 32, 6-{[2-(Piperidin-1-ylcarbonyl)[1,3]thiazolo[5,4-d]pyrimidin-7-yl]amino}-1,3-benzothiazol-2(3H)-one] was tested. Which IC50 did it give?
Answer: The IC50 was 137 nM.

Question: Which IC50 does the source give for `COc1cc2[nH]c(=O)sc2cc1Nc1ncnc2sc(C3CCCCC3)nc12` [Example 7, 6-[(2-Cyclohexyl[1,3]thiazolo[5,4-d]pyrimidin-7-yl)amino]-5-methoxy-1,3-benzothiazol-2(3H)-one] here?
Answer: Its IC50 is 354 nM.
